From patent publication US20150118311A1, “Highly Penetrative Nanocarriers for Treatment of CNS Disease” (priority 2012, published 2015)
Read-outs that look alike come from different tables or passages of the source.

Columns and labels:
GS5 cells = assay: GS5 cell proliferation/viability (MTT, AlamarBlue); format: cell-based, human
BCSCs = format: cell-based, human
BCSC sphere formation = assay: BCSC sphere formation
BCSC line PS11 = assay: Flow cytometry of CD133+ population in PS11; settings: 1 μM
U87MG-derived xenografts = assay: Survival of nude rats with intracranial U87MG xenografts after CED; format: in vivo; settings: U87MG xenograft
U87MG = assay: cells; settings: Homo sapiens, U-87 MG, read-out: IC50, growth of U87MG in vitro
CD133+ cell population = assay: Flow cytometry of CD133+ cell population in BCSC culture; format: cell-based, human; settings: 100 nM drug, 3 days after plating, DI treated culture
GS5-derived tumors = assay: Survival of nude rats with intracranial GS5 (BCSC) xenografts after CED; format: in vivo; settings: BCSC xenograft tumors in the rat, FIG. 1C
[1] = read-out: IC50 of candidate drugs on GS5 cells
[2] = Homo sapiens, 72 h, GS5 cells, three days after treatment, read-out: IC50 of candidate drugs on GS5 cells
[3] = GS5 cells, three days after treatment, read-out: IC50 of candidate drugs on GS5 cells
[4] = Homo sapiens, 72 h, read-out: IC50 of candidate drugs on GS5 cells

## C[C@@H]1O[C@@H](O[C@@H]2C=C3CC[C@@H]4[C@H](CC[C@]5(C)[C@@H](c6ccc(=O)oc6)CC[C@]45O)[C@@]3(C)CC2)[C@H](O)[C@H](O)[C@H]1O [Proscillaridin A]
GS5 cells; [1]
  IC50: 0.1 µM

## N=C(N)NCC(=O)O [Glycocyamine]
GS5 cells; [2]
  IC50: 33.9 µM

## Cc1ccc2ccc3ccc(C)nc3c2n1 [Neocuproine]
GS5 cells; [2]
  IC50: 0.2 µM

## Nc1ccn([C@@H]2O[C@H](CO)[C@@H](O)[C@@H]2O)c(=O)n1 [Cytarabine]
GS5 cells; [2]
  IC50: 0.8 µM

## O=S(=O)([O-])[O-].[Fe+2] [Iron(II) sulfate heptahydrate]
GS5 cells; [1]
  IC50: 32.1 µM

## Acriflavine hydrochloride
GS5 cells; [3]
  IC50: 3 µM

## CN1CCC(Nc2ncc3ncnc(Nc4ccc(F)c(Cl)c4)c3n2)CC1 [Falnidamol]
GS5 cells; [4]
  IC50: 22 µM

## CC[C@H]1CN2CCc3cc(OC)c(OC)cc3[C@@H]2C[C@@H]1C[C@H]1NCCc2cc(OC)c(OC)cc21 [Emetine]
GS5 cells; [2]
  IC50: 0.3 µM

## C[C@H]1C[C@H]2[C@@H]3CCC4=CC(=O)C=C[C@]4(C)[C@@]3(F)[C@@H](O)C[C@]2(C)[C@@]1(O)C(=O)CO [Betamethasone]
GS5 cells; [2]
  IC50: 25.9 µM

## CC1=C2N=C(C=C3N=C(C(C)=C4[N-]C(C(CC(N)=O)C4(C)CCC(=O)NCC(C)OP(=O)([O-])OC4C(CO)OC(n5cnc6cc(C)c(C)cc65)C4O)C4(C)N=C1C(CCC(N)=O)C4(C)CC(N)=O)C(CCC(N)=O)C3(C)C)C(CCC(N)=O)C2(C)CC(N)=O.Cl.[Co+3].[OH-] (stereo not shown) [Hydroxocobalamin hydrochloride]
GS5 cells; [1]
  IC50: 32.1 µM

## COc1ccc(C[C@H]2NC[C@H](O)[C@H]2OC(C)=O)cc1 [Anisomycin]
GS5 cells; [1]
  IC50: 0.3 µM
BCSCs
  performance on in vitro assays against BCSCs: performed well

## CCN(CC)CCNc1ccc(CO)c2sc3ccccc3c(=O)c12 [Hycanthone]
GS5 cells; [2]
  IC50: 5.6 µM

## COc1ccc2c(c1)[nH]c1c(C)nccc12 [Harmine]
GS5 cells; [4]
  IC50: 19.3 µM

## CC1=C(C(=O)O)N2C(=O)[C@@H](NC(=O)[C@H](N)C3=CCC=CC3)[C@H]2SC1 [Cephradine]
GS5 cells; [2]
  IC50: 38.5 µM

## C[C@H]1O[C@@H](O[C@H]2[C@@H](O)C[C@H](O[C@H]3[C@@H](O)C[C@H](O[C@H]4CC[C@@]5(C)[C@H](CC[C@@H]6[C@@H]5C[C@@H](O)[C@]5(C)[C@@H](C7=CC(=O)OC7)CC[C@]65O)C4)O[C@@H]3C)O[C@@H]2C)C[C@H](O)[C@@H]1O [Digoxin]
GS5 cells; [4]
  IC50: 0.3 µM
BCSCs
  effect on BCSC proliferation: inhibited BCSC proliferation
  performance on in vitro assays against BCSCs: performed well
BCSC sphere formation; 1 μM
  effect on BCSC sphere formation: inhibited BCSC sphere formation
BCSC sphere formation; 5 μM
  effect on BCSC sphere formation: inhibited BCSC sphere formation
BCSC line PS11
  effect on CD133+ population: decreased the CD133+ population

## CC(C)C[C@H]1C(=O)N2CCC[C@H]2[C@]2(O)O[C@](NC(=O)[C@@H]3C=C4c5cccc6[nH]c(Br)c(c56)C[C@H]4N(C)C3)(C(C)C)C(=O)N12 [Bromocriptine]
GS5 cells; [4]
  IC50: 9.1 µM

## CN(C)CCC(c1ccc(Cl)cc1)c1ccccn1 (stereo not shown) [Chlorpheniramine]
GS5 cells; [2]
  IC50: 40.4 µM

## CC(=O)O[C@H]1C(=O)[C@@]2(C)[C@H]([C@H](OC(=O)c3ccccc3)[C@]3(O)C[C@H](OC(=O)[C@H](O)[C@@H](NC(=O)c4ccccc4)c4ccccc4)C(C)=C1C3(C)C)[C@]1(OC(C)=O)CO[C@@H]1C[C@@H]2O [paclitaxel]
U87MG-derived xenografts; CED
  survival benefit compared to no treatment: failed to show a survival benefit
U87MG-derived xenografts; single CED infusion 7 days after inoculation
  median survival: 30 days
U87MG
  IC50: 169 nM

## CCN1/C(=C/C=C/C=C/c2sc3ccccc3[n+]2CC)Sc2ccccc21 [Dithiazanine iodide]
GS5 cells; [2]
  IC50: 0.3 µM
GS5 cells; Homo sapiens, GS5, running text, read-out: IC50, inhibition of GS5 proliferation
  IC50: 0.079 µM
CD133+ cell population
  decrease of CD133+ cell population: 57%
GS5-derived tumors
  median survival: 177 days

## CCC(=O)[O-].CCC(=O)[O-].[Ca+2] [Calcium propionate]
GS5 cells; [1]
  IC50: 29.5 µM

## CCN(CC)CCCC(C)Nc1c2ccc(Cl)cc2nc2ccc(OC)cc12 (stereo not shown) [Quinacrine]
GS5 cells; [2]
  IC50: 2.7 µM

## S=C(S)N1CCCC1 [Ammonium pyrrolidinedithiocarbamate]
GS5 cells; [3]
  IC50: 3.3 µM

## CCCCCCCCCCCCCCCCOP(=O)([O-])OCC[N+](C)(C)C [Miltefosine]
GS5 cells; [2]
  IC50: 27.8 µM

## Sc1ncnc2nc[nH]c12 [6-Mercaptopurine monohydrate]
GS5 cells; [4]
  IC50: 7.8 µM

## Nc1nc2nc[nH]c2c(=S)[nH]1 [Thioguanine]
GS5 cells; [2]
  IC50: 4.6 µM

## Nc1nc(Cl)nc2c1ncn2[C@H]1C[C@H](O)[C@@H](CO)O1 [Cladribine]
GS5 cells; [2]
  IC50: 3.4 µM
